{"source": "patent US9696296B2", "about": "“Targeting c-Rel O-GlcNAcylation and uses thereof” (California Institute of Technology, priority 2013, dated 2017)", "type_in_all_cases": "cell-based, human", "key": {"Jurkat cells": {"test_system": "Jurkat cells", "experiment": "anti-CD3/CD28-induced c-Rel dependent gene expression by quantitative real time PCR", "experimental": "Jurkat cells were treated with PUGNAc (100 μM) for 12 hours and then treated with plate bound anti-CD3/CD28 (2 μg/ml) for 3 hours. Some cells were additionally treated overnight with Streptozotocin (STZ, 2 mM) prior to PUGNAc treatment. Gene expression was analyzed by quantitative real time PCR. In other cases, Jurkat T-REx cell clones expressing wild-type and mutant c-Rel were induced with doxycycline for 22 hrs, treated with PUGNAc overnight and then treated with anti-CD3/C28 for 3 hrs.\nDNA-free RNA was prepared using the RNeasy Mini Kit according to the manufacturer's instructions (Qiagen). cDNA was synthesized from 0.5-1.0 μg total RNA using random hexamers (Promega) and Superscript III reverse transcriptase first-strand synthesis kit (Invitrogen, Carlsbad, Calif.). Quantitative real time PCR using cDNA corresponding to 20-60 ng of total RNA and Taqman Gene Expression Assays (Applied Biosystems, Foster City, Calif.) was performed in a Real-Time PCR machine (Realplex, Eppendorf) according to the manufacturer's instructions. The results obtained for individual genes were normalized to the expression of TFR for human genes and UBE2D2 for mouse genes. Quantitative real time PCR (qPCR) was performed at least in three independent experiments in triplicates and the relative levels of indicated genes were calculated with respect to the expression of transferrin receptor. Statistical significance was determined by two-tailed unpaired Student's t test and represented as mean±SEM."}, "[1]": {"test_system": "c-Rel binding CD28RE region", "experiment": "Electrophoretic mobility shift assay, anti-CD3/CD28-induced binding of nuclear extracts to CD28RE probe", "experimental": "Jurkat cells were cultured at 1.5×10^6 cells/ml in 6-well plates or 10 cm plates in the presence of 1 μg/ml of Doxycycline for 22 hours for the induction of FLAG-c-Rel. Cells were stimulated for the indicated time points (3 hours) with plate bound anti-CD3 and anti-CD28 (2 μg/ml each). […] PLCγ, Lamin and SP1 were used as loading controls. Cytoplasmic and nuclear extracts were also prepared after culturing in the presence of 1 μg/ml of Doxycycline for 22 hours for the induction of FLAG-c-Rel. FLAG-c-Rel was immunoprecipitated and analyzed with anti-O-GlcNAc antibody.\nNuclear protein extracts were prepared as described^7. Nuclear extracts corresponding to 4-6 μg of protein were tested for DNA binding using the probes containing c-Rel binding CD28RE region and p65 binding IL2-κB region. OCT1 probe was used as a control. In the probe containing CD28RE-NF-IL-2B AP-1 region, the AP site was mutated as previously described to restrict the protein binding only to the CD28RE site in our assays. (Shapiro et al. Mol Cell Biol 17:4051-4058 (1997).) Lysates were incubated with [^32P] γATP labeled probe in the binding buffer (Tris-Cl 10 mM, pH 7.5, Nacl 50 mM, glycerol 4%, MgCl2 1 mM, EDTA 0.1 mM, poly(dI-dC) 50 μg/ml, and 0.1 mM DTT) for 20 min at room temperature. […] Samples were separated in 5% non-denaturing polyacrylamide gel and analyzed by autoradiography."}, "c-Rel [2]": {"test_system": "c-Rel", "experiment": "c-Rel O-GlcNAcylation, immunoprecipitation and anti-O-GlcNAc western blot", "details": "Jurkat cells, 30 mM glucose, PUGNAc 100 μM for 3 hrs"}, "Jurkat T-REx cell clones": {"test_system": "Jurkat T-REx cell clones", "experiment": "TNF-induced NF-κB-dependent gene expression by qPCR", "details": "TNF 100 ng/ml 3 hrs, PUGNAc overnight", "experimental": "Cells were treated with TNF (100 ng/ml) for 3 hrs. Jurkat T-REx cell clones expressing wild-type and mutant c-Rel were induced with doxycycline for 22 hrs, treated with PUGNAc overnight and then treated with anti-CD3/C28 for 3 hrs. Quantitative real time PCR (qPCR) was performed at least in three independent experiments in triplicates and the relative levels of indicated genes were calculated with respect to the expression of transferrin receptor. Statistical significance was determined by two-tailed unpaired Student's t test and represented as mean±SEM."}, "p65": {"test_system": "p65", "experiment": "TNF-induced nuclear translocation assay, p65", "details": "Jurkat cells, PUGNAc overnight then TNF", "experimental": "(§1) Jurkat cells were treated overnight with PUGNAc and then with TNF. Nuclear extracts were analyzed for c-Rel and p65 nuclear translocation. p105 was used as the loading control."}, "c-Rel [3]": {"test_system": "c-Rel", "experiment": "TNF-induced nuclear translocation assay, c-Rel", "details": "Jurkat cells, PUGNAc overnight then TNF", "experimental": "as §1"}, "[4]": {"details": "Jurkat cells, PUGNAc 100 μM 12 hours, then anti-CD3/CD28 3 hours"}}}
{"smiles": "CN(N=O)C(=O)N[C@H]1C(O)O[C@H](CO)[C@@H](O)[C@@H]1O", "note": "(mixture of isomers) [Streptozotocin]", "values": [{"measurement": "anti-CD3/CD28-induced c-Rel-dependent gene expression (GMCSF)", "setting": "Jurkat cells; STZ 2 mM overnight", "result": "enhanced"}]}
{"smiles": "[N-]=[N+]=CC(=O)CC[C@H](N)C(=O)O", "note": "[DON, 6-diazo-5-oxo-L-norleucine]", "values": [{"measurement": "anti-CD3/CD28-induced CD28RE binding of nuclear extracts", "setting": "[1]; wild-type c-Rel expressing Jurkat cells, DON overnight", "result": "decreased"}]}
{"smiles": "CC(=O)N[C@H]1/C(=N/OC(=O)Nc2ccccc2)O[C@H](CO)[C@@H](O)[C@@H]1O", "note": "[PUGNAc, O-(2-acetamido-2-deoxy-D-glucopyranosylidene)amino-N-phenylcarbamate]", "values": [{"measurement": "expression of c-Rel-dependent genes in wild-type versus mutant c-Rel cells", "setting": "Jurkat cells; Jurkat T-REx clones expressing wild-type or S350A c-Rel, PUGNAc overnight, anti-CD3/CD28 3 hrs", "result": "significantly potentiated the expression of c-Rel-dependent genes only in wild-type c-Rel expressing cells"}, {"measurement": "anti-CD3/CD28-induced expression of GMCSF", "setting": "Jurkat cells; [4]", "result": "significantly potentiated"}, {"measurement": "anti-CD3/CD28-induced expression of IL-2", "setting": "Jurkat cells; [4]", "result": "significantly potentiated"}, {"measurement": "TCR-induced expression of A20 and IκBα", "setting": "Jurkat cells; PUGNAc treatment", "result": "did not observe any effect"}, {"measurement": "anti-CD3/CD28-induced CD28RE DNA binding", "setting": "[1]; PUGNAc and high glucose treatment", "result": "significantly increased"}, {"measurement": "O-GlcNAcylation of c-Rel", "setting": "c-Rel [2]", "result": "further enhanced the O-GlcNAcylation of c-Rel"}, {"measurement": "TNF-induced expression of A20", "setting": "Jurkat T-REx cell clones", "result": "neither affected"}, {"measurement": "TNF-induced expression of IκBα", "setting": "Jurkat T-REx cell clones", "result": "neither affected"}, {"measurement": "TNF-induced nuclear p65 levels", "setting": "p65", "result": "decreased"}, {"measurement": "TNF induced c-Rel nuclear translocation", "setting": "c-Rel [3]", "result": "no effect"}]}
